{"source": "patent US9695155B2", "about": "“Herbicidal substituted pyrimidinyloxy benzene compounds” (E. I. DU PONT DE NEMOURS AND COMPANY, priority 2013, dated 2017)", "key": {"oilseed rape": {"test_system": "oilseed rape", "test": "Test D postemergence", "format": "in vivo, Brassica napus", "conditions": "Brassica napus, post-emergence, scale 0 to 100 (0 no effect, 100 complete control), read-out: Plant response rating, Oilseed Rape", "method_in_brief": "(§1)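 Visual rating vs untreated controls, 0 = no effect, 100 = complete control, taken 7–21 d after treatment. Pre: silt loam soil. Post: potting medium, plants 2–18 cm, 1–4 leaf. Formulation: non-phytotoxic solvent mix + surfactant.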"}, "blackgrass": {"test_system": "blackgrass", "test": "Test D postemergence", "format": "in vivo, Alopecurus myosuroides", "conditions": "Alopecurus myosuroides, post-emergence, Postemergence, scale 0 to 100 (0 no effect, 100 complete control), read-out: Plant response rating, Blackgrass", "method_in_brief": "as §1"}, "deadnettle": {"test_system": "deadnettle", "test": "Test D preemergence", "format": "in vivo, Lamium amplexicaule", "conditions": "Lamium amplexicaule, pre-emergence, scale 0-100, read-out: Plant response rating, Deadnettle", "method_in_brief": "as §1"}, "galium": {"test_system": "galium", "test": "Test D postemergence", "format": "in vivo, Galium aparine", "conditions": "Galium, post-emergence, scale 0 to 100 (0 no effect, 100 complete control), read-out: Plant response rating, Galium", "method_in_brief": "as §1"}, "canarygrass": {"test_system": "canarygrass", "test": "Test D postemergence", "format": "in vivo, Phalaris minor", "conditions": "Phalaris minor, post-emergence, scale 0 to 100 (0 no effect, 100 complete control), read-out: Plant response rating, Canarygrass", "method_in_brief": "as §1"}, "dayflower": {"test_system": "dayflower", "test": "Test E postemergence", "format": "in vivo, Commelina virginica", "conditions": "Commelina virginica, post-emergence, read-out: Plant response rating, Dayflower, VA", "method_in_brief": "(§2)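 Compound in a non-phytotoxic solvent mixture with surfactant was applied preemergence to seeds in silt loam soil, or postemergence to plants 2 to 18 cm tall grown in peat-based potting medium. Plants were kept in a greenhouse for 14 to 21 days, then rated visually against untreated controls on a 0 (no effect) to 100 (complete control) scale.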"}, "kochia": {"test_system": "kochia", "test": "Test D postemergence", "format": "in vivo, Kochia scoparia", "conditions": "Bassia scoparia, post-emergence, scale 0 to 100 (0 no effect, 100 complete control), read-out: Plant response rating, Kochia", "method_in_brief": "as §1"}, "lambsquarters [1]": {"test_system": "lambsquarters", "test": "Test D preemergence", "format": "in vivo, Chenopodium album", "conditions": "Chenopodium album, pre-emergence, scale 0-100, read-out: Plant response rating, Lambsquarters", "method_in_brief": "as §1"}, "wild oat": {"test_system": "wild oat", "test": "Test D postemergence", "format": "in vivo, Avena fatua", "conditions": "Avena fatua, post-emergence, scale 0 to 100 (0 no effect, 100 complete control), read-out: Plant response rating, Oat, Wild", "method_in_brief": "as §1"}, "Italian ryegrass": {"test_system": "Italian ryegrass", "test": "Test E postemergence", "format": "in vivo, Lolium multiflorum", "conditions": "Lolium multiflorum, post-emergence, read-out: Plant response rating, Ryegrass, Italian", "method_in_brief": "as §2"}, "green foxtail": {"test_system": "green foxtail", "test": "Test D postemergence", "format": "in vivo, Setaria viridis", "conditions": "Setaria viridis, post-emergence, scale 0 to 100 (0 no effect, 100 complete control), read-out: Plant response rating, Foxtail, Green", "method_in_brief": "as §1"}, "lambsquarters [2]": {"test_system": "lambsquarters", "test": "Test D postemergence", "format": "in vivo, Chenopodium album", "conditions": "Chenopodium album, post-emergence, scale 0 to 100 (0 no effect, 100 complete control), read-out: Plant response rating, Lambsquarters", "method_in_brief": "as §1"}, "field violet": {"test_system": "field violet", "test": "Test D preemergence", "format": "in vivo, Viola arvensis", "conditions": "Viola arvensis, pre-emergence, scale 0-100, read-out: Plant response rating, Field Violet", "method_in_brief": "as §1"}, "[3]": {"conditions": "Postemergence, 31 g ai/ha, scale 0 to 100"}, "[4]": {"conditions": "Postemergence, 62 g ai/ha, scale 0 to 100"}, "[5]": {"conditions": "Postemergence, 125 g ai/ha, scale 0 to 100"}, "[6]": {"conditions": "Postemergence, 250 g ai/ha, scale 0 to 100"}, "[7]": {"conditions": "postemergence, 16 g ai/ha, scale 0 to 100, 0 no effect, 100 complete control"}}}
{"smiles": "N#Cc1cccc(Oc2ncc(Cl)cn2)c1-n1cc(C(F)(F)F)cn1", "note": "[Compound 58, 3-[(5-chloro-2-pyrimidinyl)oxy]-2-[4-(trifluoromethyl)-1H-pyrazol-1-yl]benzonitrile]", "values": [{"measurement": "plant injury at 31 g/ha", "setting": "oilseed rape; 31 g ai/ha", "result": 55, "unit": "%"}, {"measurement": "plant injury at 62 g/ha", "setting": "oilseed rape; 62 g ai/ha", "result": 85, "unit": "%"}, {"measurement": "plant injury at 125 g/ha", "setting": "oilseed rape; 125 g ai/ha", "result": 95, "unit": "%"}, {"measurement": "plant injury at 250 g/ha", "setting": "oilseed rape; 250 g ai/ha", "result": 95, "unit": "%"}, {"measurement": "pest or weed control at 62 g/ha", "setting": "blackgrass; 62 g ai/ha", "result": 45, "unit": "%"}, {"measurement": "pest or weed control at 31 g/ha", "setting": "blackgrass; 31 g ai/ha", "result": 20, "unit": "%"}, {"measurement": "pest or weed control at 125 g/ha", "setting": "blackgrass; 125 g ai/ha", "result": 70, "unit": "%"}, {"measurement": "pest or weed control at 250 g/ha", "setting": "blackgrass; 250 g ai/ha", "result": 90, "unit": "%"}, {"measurement": "pest or weed control at 31 g/ha", "setting": "deadnettle; 31 g ai/ha", "result": 100, "unit": "%"}, {"measurement": "pest or weed control at 62 g/ha", "setting": "deadnettle; 62 g ai/ha", "result": 100, "unit": "%"}, {"measurement": "pest or weed control at 125 g/ha", "setting": "deadnettle; 125 g ai/ha", "result": 100, "unit": "%"}, {"measurement": "pest or weed control at 250 g/ha", "setting": "deadnettle; 250 g ai/ha", "result": 100, "unit": "%"}, {"measurement": "pest or weed control at 31 g/ha", "setting": "galium; 31 g ai/ha", "result": 70, "unit": "%"}, {"measurement": "pest or weed control at 62 g/ha", "setting": "galium; 62 g ai/ha", "result": 100, "unit": "%"}, {"measurement": "pest or weed control at 125 g/ha", "setting": "galium; 125 g ai/ha", "result": 100, "unit": "%"}, {"measurement": "pest or weed control at 250 g/ha", "setting": "galium; 250 g ai/ha", "result": 100, "unit": "%"}, {"measurement": "pest or weed control at 31 g/ha", "setting": "canarygrass; 31 g ai/ha", "result": 35, "unit": "%"}, {"measurement": "pest or weed control at 62 g/ha", "setting": "canarygrass; 62 g ai/ha", "result": 40, "unit": "%"}, {"measurement": "pest or weed control at 125 g/ha", "setting": "canarygrass; 125 g ai/ha", "result": 50, "unit": "%"}, {"measurement": "pest or weed control at 250 g/ha", "setting": "canarygrass; 250 g ai/ha", "result": 70, "unit": "%"}, {"measurement": "pest or weed control at 31 g/ha", "setting": "dayflower; [3]", "result": 60, "unit": "%"}, {"measurement": "pest or weed control at 62 g/ha", "setting": "dayflower; [4]", "result": 75, "unit": "%"}, {"measurement": "pest or weed control at 125 g/ha", "setting": "dayflower; [5]", "result": 90, "unit": "%"}, {"measurement": "pest or weed control at 250 g/ha", "setting": "dayflower; [6]", "result": 100, "unit": "%"}, {"measurement": "pest or weed control at 16 g/ha", "setting": "dayflower; [7]", "result": 50, "unit": "%"}, {"measurement": "pest or weed control at 31 g/ha", "setting": "kochia; 31 g ai/ha", "result": 95, "unit": "%"}, {"measurement": "pest or weed control at 62 g/ha", "setting": "kochia; 62 g ai/ha", "result": 95, "unit": "%"}, {"measurement": "pest or weed control at 125 g/ha", "setting": "kochia; 125 g ai/ha", "result": 95, "unit": "%"}, {"measurement": "pest or weed control at 250 g/ha", "setting": "kochia; 250 g ai/ha", "result": 95, "unit": "%"}, {"measurement": "pest or weed control at 31 g/ha", "setting": "lambsquarters [1]; 31 g ai/ha", "result": 100, "unit": "%"}, {"measurement": "pest or weed control at 62 g/ha", "setting": "lambsquarters [1]; 62 g ai/ha", "result": 100, "unit": "%"}, {"measurement": "pest or weed control at 125 g/ha", "setting": "lambsquarters [1]; 125 g ai/ha", "result": 100, "unit": "%"}, {"measurement": "pest or weed control at 250 g/ha", "setting": "lambsquarters [1]; 250 g ai/ha", "result": 100, "unit": "%"}, {"measurement": "pest or weed control at 31 g/ha", "setting": "wild oat; 31 g ai/ha", "result": 30, "unit": "%"}, {"measurement": "pest or weed control at 62 g/ha", "setting": "wild oat; 62 g ai/ha", "result": 35, "unit": "%"}, {"measurement": "pest or weed control at 125 g/ha", "setting": "wild oat; 125 g ai/ha", "result": 35, "unit": "%"}, {"measurement": "pest or weed control at 250 g/ha", "setting": "wild oat; 250 g ai/ha", "result": 55, "unit": "%"}, {"measurement": "pest or weed control at 31 g/ha", "setting": "Italian ryegrass; [3]", "result": 10, "unit": "%"}, {"measurement": "pest or weed control at 62 g/ha", "setting": "Italian ryegrass; [4]", "result": 20, "unit": "%"}, {"measurement": "pest or weed control at 125 g/ha", "setting": "Italian ryegrass; [5]", "result": 35, "unit": "%"}, {"measurement": "pest or weed control at 250 g/ha", "setting": "Italian ryegrass; [6]", "result": 60, "unit": "%"}, {"measurement": "pest or weed control at 16 g/ha", "setting": "Italian ryegrass; [7]", "result": 10, "unit": "%"}, {"measurement": "pest or weed control at 31 g/ha", "setting": "green foxtail; 31 g ai/ha", "result": 20, "unit": "%"}, {"measurement": "pest or weed control at 62 g/ha", "setting": "green foxtail; 62 g ai/ha", "result": 40, "unit": "%"}, {"measurement": "pest or weed control at 125 g/ha", "setting": "green foxtail; 125 g ai/ha", "result": 65, "unit": "%"}, {"measurement": "pest or weed control at 250 g/ha", "setting": "green foxtail; 250 g ai/ha", "result": 80, "unit": "%"}, {"measurement": "pest or weed control at 31 g/ha", "setting": "lambsquarters [2]; 31 g ai/ha", "result": 75, "unit": "%"}, {"measurement": "pest or weed control at 62 g/ha", "setting": "lambsquarters [2]; 62 g ai/ha", "result": 90, "unit": "%"}, {"measurement": "pest or weed control at 125 g/ha", "setting": "lambsquarters [2]; 125 g ai/ha", "result": 95, "unit": "%"}, {"measurement": "pest or weed control at 250 g/ha", "setting": "lambsquarters [2]; 250 g ai/ha", "result": 90, "unit": "%"}, {"measurement": "pest or weed control at 31 g/ha", "setting": "field violet; 31 g ai/ha", "result": 100, "unit": "%"}, {"measurement": "pest or weed control at 62 g/ha", "setting": "field violet; 62 g ai/ha", "result": 100, "unit": "%"}, {"measurement": "pest or weed control at 125 g/ha", "setting": "field violet; 125 g ai/ha", "result": 100, "unit": "%"}, {"measurement": "pest or weed control at 250 g/ha", "setting": "field violet; 250 g ai/ha", "result": 100, "unit": "%"}]}
